Reference: PubChem BioAssay (NCI)
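Method: 48-hour compound exposure of cells in 96-well plates, five concentrations, linear interpolation of endpoints. Here, GI50 denotes the concentration required for 50% inhibition of growth. TGI: concentration producing complete growth inhibition.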

Key:
Assay in all cases: DTP human tumour cell line panel, 48 h
IGROV1 ovarian = system: IGROV1 ovarian
DU-145 prostate = system: DU-145 prostate
EKVX NSCLC = system: EKVX NSCLC
M14 melanoma = system: M14 melanoma
MDA-MB-231 breast = system: MDA-MB-231 breast
HCT-15 colon = system: HCT-15 colon
MCF7 breast = system: MCF7 breast
OVCAR-8 ovarian = system: OVCAR-8 ovarian
786-0 renal = system: 786-0 renal
SK-MEL-2 melanoma = system: SK-MEL-2 melanoma

Compound | TGI (IGROV1 ovarian) [µM] | TGI (DU-145 prostate) [µM] | TGI (EKVX NSCLC) [µM] | TGI (M14 melanoma) [µM] | TGI (MDA-MB-231 breast) [µM] | TGI (HCT-15 colon) [µM] | TGI (MCF7 breast) [µM] | TGI (OVCAR-8 ovarian) [µM] | TGI (786-0 renal) [µM] | TGI (SK-MEL-2 melanoma) [µM] | GI50 (IGROV1 ovarian) [µM] | GI50 (DU-145 prostate) [µM] | GI50 (EKVX NSCLC) [µM] | GI50 (M14 melanoma) [µM] | GI50 (MDA-MB-231 breast) [µM] | GI50 (HCT-15 colon) [µM] | GI50 (MCF7 breast) [µM] | GI50 (OVCAR-8 ovarian) [µM] | GI50 (SK-MEL-2 melanoma) [µM]
c1cncc(CSc2ncnc3nc[nH]c23)c1 | > 100 | > 100 | > 100 | > 100 | > 100 | > 100 | > 100 | > 100 | > 100 | > 100 | – | – | – | – | – | – | – | – | –
COc1ccc(NC/C=C/C(=C/COC(C)=O)OC(C)=O)cc1 | 3.56 | 10.2 | 4.99 | 3.19 | 3.37 | 5.1 | > 100 | 16.1 | 2.44 | 5.58 | – | – | – | – | – | – | – | – | –
CCCCN(C)C(=O)C1=C(C)NC(C)=C(C(=O)N(C)CCCC)C1 | > 100 | > 100 | > 100 | > 100 | > 100 | > 100 | > 100 | > 100 | > 100 | > 100 | – | – | – | – | – | – | – | – | –
C=C[C@]1(O[Si](C)(C)C)C[C@@]2(C(=O)OCC)C(O)C(=O)N3CCc4cc(OC)c(OC)cc4[C@]312 (stereo not given in full) | > 100 | > 100 | > 100 | > 100 | > 100 | > 100 | > 100 | > 100 | > 100 | > 100 | – | – | – | – | – | – | – | – | –
BrCc1ccc(CBr)c2c1-c1c(CBr)ccc3ccc(CBr)c-2c13 | > 100 | > 100 | > 100 | > 100 | > 100 | > 100 | > 100 | > 100 | > 100 | > 100 | – | – | – | – | – | – | – | – | –
COc1ccc(NC(=O)C(=O)Cc2nc3ccc(C(=O)c4ccccc4)cc3[nH]c2=O)c([N+](=O)[O-])c1 | 60.7 | > 100 | > 100 | > 100 | > 100 | > 100 | > 100 | 49 | > 100 | > 100 | – | – | – | – | – | – | – | – | –
C[C@H](NC(=O)CNC(=O)CCCCCC(=O)NCC(=O)N[C@@H](C)C(=O)OCc1ccccc1)C(=O)OCc1ccccc1 | > 100 | > 100 | > 100 | > 100 | > 100 | > 100 | > 100 | > 100 | > 100 | > 100 | – | – | – | – | – | – | – | – | –
O=C1C=C(C2=C(C3=CC(=O)c4ccccc4C3=O)C(=O)c3ccccc3C2=O)C(=O)c2ccccc21 | 8.1 | 16.5 | 33.8 | 22.5 | 13.8 | 28.9 | 29.6 | 19.1 | 12.6 | 42.4 | – | – | – | – | – | – | – | – | –
CCOC(=O)/C=C/C1(CCOC(C)=O)CCCCC1 | > 10 | > 10 | > 10 | > 10 | > 10 | > 10 | > 10 | > 10 | > 10 | > 10 | – | – | – | – | – | – | – | – | –
CSc1c(C#N)c(S)n(-c2ccc(Cl)cc2)c(=O)c1C#N | > 100 | > 100 | > 100 | > 100 | > 100 | > 100 | > 100 | > 100 | > 100 | > 100 | – | – | – | – | – | – | – | – | –
O=c1cc(CNC2CC3CCC2C3)[nH]c(=O)[nH]1 (stereo not given) | > 100 | > 100 | > 100 | > 100 | > 100 | > 100 | > 100 | > 100 | > 100 | > 100 | – | – | – | – | – | – | – | – | –
O/N=C1/CCCc2nonc21 | > 100 | > 100 | > 100 | > 100 | > 100 | > 100 | > 100 | > 100 | > 100 | > 100 | – | – | – | – | – | – | – | – | –
CC(C)CCC[C@@H](C)[C@H]1CC[C@H]2C3=C[C@H](OS(=O)(=O)O)[C@@]4(O)C[C@@H](O)CC[C@]4(C)[C@@]3(O)CC[C@]12C | > 100 | > 100 | > 100 | > 100 | > 100 | > 100 | > 100 | > 100 | > 100 | > 100 | – | – | – | – | – | – | – | – | –
C/C(=N\NC(=S)Nc1ccc([N+](=O)[O-])cc1)c1nc2ncccc2[nH]1 | 4.75 | > 100 | 3.2 | 6.37 | > 100 | 9.04 | 2.38 | 1.71 | 11.6 | 4.06 | – | – | – | – | – | – | – | – | –
O=C(/C=C(\Nc1ccccc1O)c1ccc(Br)cc1)C(Cl)(Cl)Cl | 23.7 | 13.8 | 13.9 | 29.2 | 20.3 | 25.9 | 20 | 27 | 27.6 | 20.7 | – | – | – | – | – | – | – | – | –
Cc1ccc(S(=O)(=O)N2CC(CCN)c3ccccc32)cc1 (stereo not given) | > 53.4 | 31.3 | 82.4 | 8.4 | 29.9 | > 100 | 29.8 | 27 | 14.7 | 13.4 | – | – | – | – | – | – | – | – | –
CC(=O)N(CC(=O)C(=O)NNc1ccoc1)c1ccc(Cl)cc1 | > 100 | > 100 | > 100 | > 100 | > 100 | > 100 | > 100 | > 100 | > 100 | > 100 | – | – | – | – | – | – | – | – | –
O=C(O)Cc1cccc2c(=O)c3cccc([N+](=O)[O-])c3[nH]c12 | > 100 | > 100 | – | > 100 | > 100 | > 100 | > 100 | > 100 | > 100 | > 100 | – | – | – | – | – | – | – | – | –
Cc1nc(N(C(C)C)C(C)C)c(C(C)C)o1 | > 100 | > 100 | > 100 | > 100 | > 100 | > 100 | > 100 | > 100 | > 100 | – | – | – | – | – | – | – | – | – | –
CCC(=O)C(CCN1CCC(N2C(=O)C(CCC#N)c3ccccc32)CC1)(c1ccccc1)c1ccccc1 (stereo not given) | 30.5 | 26.5 | – | 22.2 | 20.8 | 26 | 25.5 | 23.6 | 24.7 | 29.7 | – | – | – | – | – | – | – | – | –
O=C1c2ccccc2C(=O)c2c1cc1c(c2[N+](=O)[O-])OCO1 | 7.62 | 8.43 | 9.8 | 16.9 | 6.79 | 8.82 | 7.29 | 10.3 | – | 5.14 | 1.21 | 2.58 | 2.92 | 3.78 | 1.45 | 2.15 | 1 | 1.68 | 2.56
